Patent US10123537B2, “Amide compound or salt thereof, agricultural and horticultural insecticide and microbicide comprising the compound, and method for using the insecticide and microbicide” (NIHON NOHYAKU CO., LTD., priority 2013, dated 2018)

Tests used:
[1] = test system: Tetranychus urticae; assay: Acaricidal test on Tetranychus urticae; format: in vivo; conditions: 500 ppm, kidney bean leaf disks dipped about 30 seconds, female adults, two days later, 25° C.
Excerpt: Acaricidal Test on Tetranychus urticae

[2] = test system: Meloidogyne incognita; assay: Nematicidal test on Meloidogyne incognita; format: in vivo; conditions: 500 ppm, 1 mL soil drench, potted melon seedlings, 8 days after inoculation
Method: Nematicidal Test on Meloidogyne incognita
Agrochemical formulations containing different amide compounds represented by the general formula (I) of the present invention or salts thereof as an active ingredient were separately diluted to a concentration of 500 ppm. The diluted agrochemical formulations (1 mL) were drenched into the soil around the foot of potted melon seedlings. At one day after the agrochemical treatment, an aqueous suspension of Meloidogyne incognita (about 500 worms/mL) was drenched into the soil for inoculation both in a treatment plot and in a non-treatment plot. The inoculated pots were kept in a greenhouse at 25° C. At 8 days after the inoculation, the root of each seedling was washed with water, the number of root nodules was counted, and the nematicidal effect was evaluated according to the following criteria.
A: the percentage of the number of root nodules relative to the non-treatment plot is 0%.
B: the percentage of the number of root nodules relative to the non-treatment plot is 1 to 10%.
C: the percentage of the number of root nodules relative to the non-treatment plot is 11 to 20%.
D: the percentage of the number of root nodules relative to the non-treatment plot is 21 to 50%.

[3] = test system: wheat powdery mildew fungus Erysiphe graminis; conditions: 200 ppm, foliar application to wheat plants, 10 mL per pot, 7 days after inoculation

SMILES	acaricidal effect (corrected mortality rate) activity level [1]	nematicidal effect (number of root nodules relative to non-treatment plot) activity level [2]	control effect (control rate, lesion area) activity level [3]
CCSc1cc(C(F)(F)F)ccc1C(=O)N(CC)c1ccc(C(F)(F)F)cn1 [Compound 1-4]	D or higher	D or higher	–
CCSc1cc(C(F)(F)F)ccc1C(=O)N(c1ccc(C(F)(F)F)cn1)C1CC1 [Compound 1-7]	–	D or higher	–
CC[S+]([O-])c1cc(C(F)(F)F)ccc1C(=O)N(c1ccc(C(F)(F)F)cn1)C1CC1 (centres unmarked) [Compound 1-8]	D or higher	D or higher	–
CCS(=O)(=O)c1cc(C(F)(F)F)ccc1C(=O)N(c1ccc(C(F)(F)F)cn1)C1CC1 [Compound 1-9]	D or higher	D or higher	–
CCSc1cc(C(F)(F)F)cnc1C(=O)N(CC)c1ccc(C(F)(F)F)cn1 [Compound 1-10]	–	D or higher	D or higher
CCN(C(=O)c1ncc(C(F)(F)F)cc1S(=O)(=O)CC)c1ccc(C(F)(F)F)cn1 [Compound 1-12]	–	D or higher	–
CCSc1cc(C(F)(F)F)cnc1C(=O)N(c1ccc(C(F)(F)F)cn1)C1CC1 [Compound 1-13]	–	D or higher	–
CC[S+]([O-])c1cc(C(F)(F)F)cnc1C(=O)N(c1ccc(C(F)(F)F)cn1)C1CC1 (centres unmarked) [Compound 1-14]	–	–	D or higher
CCS(=O)(=O)c1cc(C(F)(F)F)cnc1C(=O)N(c1ccc(C(F)(F)F)cn1)C1CC1 [Compound 1-15]	–	–	D or higher
CCS(=O)(=O)c1cc(C(F)(F)F)ccc1C(=O)N(C)c1ccc(C(F)(C(F)(F)F)C(F)(F)F)cn1 [Compound 1-21]	–	D or higher	D or higher
CCSc1cc(C(F)(F)F)ccc1C(=O)N(C)c1ccc(C(F)(C(F)(F)F)C(F)(F)F)nc1 [Compound 1-22]	–	–	D or higher
CCS(=O)(=O)c1cc(C(F)(F)F)ccc1C(=O)N(C)c1ccc(C(F)(C(F)(F)F)C(F)(F)F)nc1 [Compound 1-24]	–	D or higher	–
CCSc1cc(C(F)(F)F)ccc1C(=O)N(C)c1ccc(C(F)(F)C(F)(F)F)cn1 [Compound 1-25]	D or higher	D or higher	–
CCS(=O)(=O)c1cc(C(F)(F)F)ccc1C(=O)N(C)c1ccc(C(F)(F)C(F)(F)F)cn1 [Compound 1-26]	D or higher	D or higher	–
CCS(=O)(=O)c1cc(C(F)(F)C(F)(F)F)ccc1C(=O)N(C)c1ccc(C(F)(F)F)cn1 [Compound 1-44]	–	D or higher	–
CCSc1cc(C(F)(F)F)ccc1C(=O)N(C)c1ccc(C(F)(F)F)nn1 [Compound 2-1]	–	D or higher	–
CCS(=O)(=O)c1cc(C(F)(F)F)ccc1C(=O)N(C)c1ccc(C(F)(F)F)nn1 [Compound 2-3]	–	D or higher	–
CCSc1cc(C(F)(F)F)ccc1C(=O)N(C)c1ccc(C(OC)(C(F)(F)F)C(F)(F)F)cc1 [Compound 3-4]	D or higher	–	–
CCSc1cc(C(F)(F)F)ccc1C(=O)N(C)c1ccc(C(F)(C(F)(F)F)C(F)(F)F)cc1 [Compound 3-7]	–	D or higher	–
CC[S+]([O-])c1cc(C(F)(F)F)ccc1C(=O)N(C)c1ccc(C(F)(C(F)(F)F)C(F)(F)F)cc1 (centres unmarked) [Compound 3-8]	–	D or higher	–
CCS(=O)(=O)c1cc(C(F)(F)F)ccc1C(=O)N(C)c1ccc(C(F)(C(F)(F)F)C(F)(F)F)cc1 [Compound 3-9]	–	D or higher	D or higher
CCSc1cc(C(F)(F)F)ccc1C(=O)N(C)c1ccc(OC(F)(F)F)cc1 [Compound 3-12]	–	D or higher	D or higher
CC[S+]([O-])c1cc(C(F)(F)F)ccc1C(=O)N(C)c1ccc(OC(F)(F)F)cc1 (centres unmarked) [Compound 3-13]	–	–	D or higher
CC[S+]([O-])c1cc(C(F)(F)F)ccc1C(=O)N(C)c1ccc(SC(F)(F)F)cc1 (centres unmarked) [Compound 3-16]	–	–	D or higher
CCS(=O)(=O)c1cc(C(F)(F)F)ccc1C(=O)N(C)c1ccc(SC(F)(F)F)cc1 [Compound 3-17]	–	–	D or higher

SMILES	acaricidal effect (corrected mortality rate) activity level [1]	nematicidal effect (number of root nodules relative to non-treatment plot) activity level [2]	control effect (control rate, lesion area) activity level [3]
CC[S+]([O-])c1cc(C(F)(F)F)ccc1C(=O)N(C)c1ccc(C(C)C)cc1 (centres unmarked) [Compound 3-19]	–	–	D or higher
CC[S+]([O-])c1cc(C(F)(F)F)ccc1C(=O)N(C)c1ccc(Cl)cc1 (centres unmarked) [Compound 3-22]	–	D or higher	–
CC[S+]([O-])c1cc(C(F)(F)F)ccc1C(=O)N(C)c1ccc(Cl)c(Cl)c1 (centres unmarked) [Compound 3-28]	–	–	D or higher
CC[S+]([O-])c1cc(C(F)(F)F)ccc1C(=O)N(C)c1ccc(Cl)c(C(F)(F)F)c1 (centres unmarked) [Compound 3-31]	–	–	D or higher
CCS(=O)(=O)c1cc(C(F)(F)F)ccc1C(=O)N(C)c1ccc(Cl)c(C(F)(F)F)c1 [Compound 3-32]	–	–	D or higher
CC[S+]([O-])c1cc(C(F)(F)F)ccc1C(=O)N(C)c1ccc(I)cc1F (centres unmarked) [Compound 3-34]	–	–	D or higher
CCS(=O)(=O)c1cc(C(F)(F)F)ccc1C(=O)N(C)c1ccc(C(F)(F)C(F)(F)F)c(C)c1 [Compound 3-47]	–	–	D or higher
CCS(=O)(=O)c1cc(C(F)(F)F)ccc1C(=O)N(C)c1ccc(C(F)(F)C(F)(F)F)c(C)c1C [Compound 3-50]	–	–	D or higher
CCSc1cc(C(F)(F)F)ccc1C(=O)Nc1ccc(C(C(F)(F)F)C(F)(F)F)cc1 [Compound 4-5]	–	D or higher	D or higher
CCS(=O)(=O)c1cc(C(F)(F)F)ccc1C(=O)Nc1ccc(C(F)(F)C(F)(F)C(F)(F)C(F)(F)F)cc1C [Compound 4-16]	–	–	D or higher
CC[S+]([O-])c1cc(C(F)(F)F)ccc1C(=O)Nc1ccc(F)c(C(F)(F)F)c1F (centres unmarked) [Compound 4-21]	–	–	D or higher
CCS(=O)(=O)c1cc(C(F)(F)F)ccc1C(=O)Nc1ccc(F)c(C(F)(F)F)c1F [Compound 4-22]	–	–	D or higher
CC[S+]([O-])c1cc(C(F)(F)F)ccc1C(=O)Nc1ccc(C(F)(C(F)(F)F)C(F)(F)F)cc1Cl (centres unmarked) [Compound 4-27]	–	–	D or higher
CCSc1cc(C(F)(F)F)ccc1C(=O)Nc1ccc(C(F)(C(F)F)C(F)(F)F)cc1Cl (centres unmarked) [Compound 5-51]	–	–	D or higher
CCS(=O)(=O)c1cc(C(F)(F)F)ccc1C(=O)Nc1ccc(C(F)(C(F)(F)F)C(F)(F)Br)cc1Cl (centres unmarked) [Compound 5-59]	–	–	D or higher
CC[S+]([O-])c1cc(C(F)(F)F)ccc1C(=O)Nc1ccc([Si](C)(C)C)cc1C (centres unmarked) [Compound 5-64]	–	–	D or higher
CC[S+]([O-])c1cc(C(F)(F)F)ccc1C(=O)Nc1ccc(OC(F)(F)C(F)F)cc1C (centres unmarked) [Compound 5-70]	–	–	D or higher
CCS(=O)(=O)c1cc(C(F)(F)F)ccc1C(=O)Nc1ccc(OC(F)(F)C(F)F)cc1C [Compound 5-71]	–	–	D or higher
CC[S+]([O-])c1cc(C(F)(F)F)ccc1C(=O)Nc1ccc(OC(F)(F)F)cc1Br (centres unmarked) [Compound 5-73]	–	–	D or higher
CCc1cc(OC(F)(F)F)ccc1NC(=O)c1ccc(C(F)(F)F)cc1S(=O)(=O)CC [Compound 5-77]	–	–	D or higher
CCS(=O)(=O)c1cc(OC)ccc1C(=O)Nc1ccc(C(F)(C(F)(F)F)C(F)(F)F)cc1C [Compound 6-12]	–	–	D or higher
CCSc1cc(SC(F)(F)F)ccc1C(=O)Nc1ccc(C(F)(C(F)(F)F)C(F)(F)F)cc1Cl [Compound 6-22]	–	–	D or higher
CC[S+]([O-])c1cc(SC(F)(F)F)ccc1C(=O)Nc1ccc(C(F)(C(F)(F)F)C(F)(F)F)cc1Cl (centres unmarked) [Compound 6-23]	–	–	D or higher
CCS(=O)(=O)c1cc(SC(F)(F)F)ccc1C(=O)Nc1ccc(C(F)(C(F)(F)F)C(F)(F)F)cc1Cl [Compound 6-24]	–	–	D or higher
